# Source: paper PMC9739877, “Discovery and Mechanistic Investigation of Piperazinone Phenylalanine Derivatives with Terminal Indole or Benzene Ring as Novel HIV-1 Capsid Modulators” (Molecules, 2022)
# How the values were obtained:
# [1] = Cytotoxicity in mock-infected MT-4 cells, MTT assay; assay type: cell-based; conditions: human, 50% reduction of viability of mock-infected MT-4 cells
# Procedure: (§1) II. In vitro anti-HIV Assay in MT-4 Cells […]
# (§2) performed using the MTT assay as described below. Stock solutions (10 × final concentration) of test compounds were added in 25 µL volumes to two series of […]
# (§3) infected cells at the beginning of each experiment. Serial 5-fold dilutions of test […]
# (§4) Biomek 3000 robot (Beckman Instruments, Fullerton, CA). Untreated HIV- and mock-infected cell samples were included as controls. HIV stock (50 µL) at 100-300 CCID50 […]
# (§5) or mock-infected wells of the microtiter tray. Mock-infected cells were used to evaluate […]
# (§6) cytotoxicity. Exponentially growing MT-4 cells were centrifuged for 5 minutes at 220 g, and the supernatant was discarded. […]
# (§7) cells/mL, and 50 µL volumes were transferred to the microtiter tray wells. Five days […]
# (§8) spectrophotometrically using the MTT assay. The MTT assay is based on the reduction […]
# (§9) M1000, Tecan), at two wavelengths (540 and 690 nm). All data were calculated using the median absorbance value of three wells.
# (§10) (OD540) of the mock-infected control sample by 50%. The concentration achieving 50%
# [2] = system: HIV-1 (IIIB); test: microbe, parasite or virus in culture; assay type: cell-based; conditions: Human immunodeficiency virus 1, MT4, 50% protection against HIV-induced cytotoxicity, MT-4 cells, MTT
# Procedure: (§11) II. In vitro anti-HIV Assay in MT-4 Cells
# (§12) Evaluation of the antiviral activity of the compounds against HIV in MT-4 cells was performed using the MTT assay as described below. Stock solutions (10 × final concentration) of test compounds were added in 25 µL volumes to two series of triplicate wells to allow simultaneous evaluation of their effects on mock- and HIV-infected cells at the beginning of each experiment. Serial 5-fold dilutions of test compounds were made directly in flat-bottomed 96-well microtiter trays using a Biomek 3000 robot (Beckman Instruments, Fullerton, CA). Untreated HIV- and mock-infected cell samples were included as controls. HIV stock (50 µL) at 100-300 CCID50 (50 % cell culture infectious doses) or culture medium was added to either the infected or mock-infected wells of the microtiter tray. Mock-infected cells were used to evaluate the effects of the test compound on uninfected cells to assess the test compounds' cytotoxicity. Exponentially growing MT-4 cells were centrifuged for 5 minutes at 220 g, and the supernatant was discarded. […]
# (§13) cells/mL, and 50 µL volumes were transferred to the microtiter tray wells. Five days after infection, the viability of mock-and HIV-infected cells was examined spectrophotometrically using the MTT assay. The MTT assay is based on the reduction of yellow colored 3-(4,5-dimethylthiazol-2-yl)-2,5-diphenyltetrazolium bromide (MTT) (Acros Organics) by mitochondrial dehydrogenase activity in metabolically active cells to a blue-purple formazan that can be measured spectrophotometrically. The absorbances were read in an eight-channel computer-controlled photometer (Infinite M1000, Tecan), at two wavelengths (540 and 690 nm). All data were calculated using the median absorbance value of three wells. […]
# (§14) was defined as the concentration of the test compound that reduced the absorbance (OD540) of the mock-infected control sample by 50%. The concentration achieving 50% protection against the cytopathic effect of the virus in infected cells was defined as the […]
# [3] = system: HIV-2 (ROD); test: Anti-HIV-2 (ROD) activity in MT-4 cells, MTT assay; assay type: cell-based; conditions: Human immunodeficiency virus 2, MT4, 50% protection against HIV-induced cytotoxicity
# Procedure: as §11, §12, §13, §14
# [4] = human, microsomes
# [5] = system: MT-4 cells; test: Cytotoxicity in mock-infected MT-4 cells, MTT assay; assay type: cell-based; conditions: 50% reduction of viability of mock-infected MT-4 cells
# Procedure: as §1, §2, §3, §4, §5, §6, §7, §8, §9, §10
# [6] = target: T1, HIV-1 CA monomer (Human immunodeficiency virus type 1 group M subtype B, UniProt P12493); test: biochemical; assay type: binding; conditions: SPR
# T1 construct: a vector containing C-terminally His-tagged HIV-1NL4-3CA; His6 (CA-H6) (C); made in house; host or cells: E. coli BL21-Codon Plus (DE3)-RIL
# [7] = in vitro; conditions: both, human, plasma
# [8] = in vitro; conditions: human, microsomes
# [9] = target: HIV-1 CA hexamer (Human immunodeficiency virus type 1 group M subtype B, UniProt P12493, A146C/E177C/M317A/W316A); test: SPR binding to disulfide-stabilized hexameric HIV-1 CA
compound,measurement,setting,value
"COc1ccc(N(C)C(=O)[C@H](Cc2ccccc2)NC(=O)CN2CCN(C(=O)c3ccc(NS(C)(=O)=O)cc3)CC2=O)cc1 [7h, (S)-N-(4-methoxyphenyl)-N-methyl-2-(2-(4-(4-(methylsulfonamido)benzoyl)-2-oxopiperazin-1-yl)acetamido)-3-phenylpropanamide]",CC50 at 5 days,[1],> 201 µM
same,EC50,[2],192 ± 3.17 µM
same,EC50,[3],> 201 µM
"COc1ccc(N(C)C(=O)[C@H](Cc2ccccc2)NC(=O)CN2CCN(C(=O)c3ccc(NC(=O)C(F)(F)F)cc3)CC2=O)cc1 [7j, (S)-N-(4-methoxyphenyl)-N-methyl-2-(2-(2-oxo-4-(4-(2,2,2-trifluoroacetamido)benzoyl)piperazin-1-yl)acetamido)-3-phenylpropanamide]",CC50 at 5 days,[1],> 195 µM
same,EC50,[2],158 ± 6.77 µM
same,EC50,[3],15 ± 4.83 µM
"O=C(O)Cc1ccccc1Nc1c(Cl)cccc1Cl [Diclofenac, diclofenac]",CLint(liver),[4],334.8 mL/min/kg
same,CLint(mic),[4],372.0 µL/min/mg
same,T1/2,[4],3.7 min
"COc1ccc(N(C)C(=O)[C@H](Cc2cc(F)cc(F)c2)NC(=O)CN2CCN(C(=O)Cc3c[nH]c4ccc(F)cc34)CC2=O)cc1 [F2-7f, (S)-3-(3,5-difluorophenyl)-2-(2-(4-(2-(5-fluoro-1H-indol-3-yl)acetyl)-2-oxopiperazin-1-yl)acetamido)-N-(4-methoxyphenyl)-N-methylpropanamide]",CC50,[5],16.4 ± 3.38 µM
same,Kd,[6],16.1 ± 1.32 µM
same,half-life at 2 μM,[7],> 289 min
same,"remaining at 0 h, 2 μM",[7],100%
same,"remaining at 10 min, 2 μM",[7],98%
same,"remaining at 0.5 h, 2 μM",[7],97.8%
same,"remaining at 1 h, 2 μM",[7],90.9%
same,"remaining at 2 h, 2 μM",[7],86.9%
same,Remaining (NCF = 60 min),"[4]; 1 h, 1 μM",103.5%
same,Remaining (T = 60 min),"[4]; 1 h, 1 μM",0.0%
same,CLint scaled at 1 μM,[8],2480 mL/min/kg
same,half-life at 1 μM,[8],0.5 min
same,microsomal CLint at 1 μM,[8],2760 µL/min/mg
same,Kd,[9],7.2 ± 1.1 µM
same,koff times higher than that of PF74,[9]; CA hexamers,approximately 8.5 times
same,Ratio KD Monomer/KD Hexamer,[9]; SPR,2.230
same,koff Hexamer,[9]; off-rate measured for HIV-1 CA hexamer,0.151 ± 0.028 s⁻¹
same,EC50,[2],5.89 ± 2.03 µM
same,EC50,[3],5.07 ± 0.63 µM
"COc1ccc(N(C)C(=O)[C@H](Cc2cc(F)cc(F)c2)NC(=O)CN2CCN(C(=O)c3ccc(NS(C)(=O)=O)cc3)CC2=O)cc1 [F2-7h, (S)-3-(3,5-difluorophenyl)-N-(4-methoxyphenyl)-N-methyl-2-(2-(4-(4-(methylsulfonamido)benzoyl)-2-oxopiperazin-1-yl)acetamido)propenamide]",CC50 at 5 days,[1],> 190 µM
same,EC50,[2],161 ± 15.4 µM
same,EC50,[3],183 ± 2.77 µM
